Results taken from patent US20210177023A1, “COMPOUNDS FOR SWEETNESS ENHANCEMENT” (International Flavors & Fragrances Inc., priority 2019, published 2021).

Experiments:
Assay type in all cases: in vivo, human
[1] = Taste and smell of the compound alone
Procedure: A sucrose solution (4%) was prepared in water. Each of ligustrosidic acid and 2′-hydroxy ligustrosidic acid solutions of different concentrations was prepared in ethanol solution in water (50%). Ligustrosidic acid and 2′-hydroxy ligustrosidic acid were evaluated at 1 and 200 ppm, respectively. […] A sucrose solution (4%) was prepared in water. Each of verbascoside and isoverbascoside solutions of different concentrations was prepared in ethanol solution in water (50%). Verbascoside and isoverbascoside were evaluated at 1 and 200 ppm, respectively.

[2] = Enhancement of sucrose sweetness (flavor profile of sucrose solution with added substance); settings: sucrose solution (4%); for overall effect when used with sucrose (summary in text): over the levels tested; for effect observed in sucrose solution: compound 5 ppm
Procedure: A sucrose solution (4%) was prepared in water. Each of ligustrosidic acid and 2′-hydroxy ligustrosidic acid solutions of different concentrations was prepared in ethanol solution in water (50%). Ligustrosidic acid and 2′-hydroxy ligustrosidic acid were evaluated at 1 and 200 ppm, respectively. […] Solutions of Chaenomeles speciosa leave extract containing ligustrosidic acid (0.61%), 2′-hydroxy ligustrosidic acid (0.62%), verbascoside (0.69%) and isoverbascoside (0.21%) were prepared in ethanol solution in water (50%) to obtain a series of concentrations ranging from 1 to 1000 ppm. Solutions of sucrose (4%) and Luo Han Guo (120 ppm) were prepared as above (EXAMPLE II and III). In addition, solutions of fructose (3.4%), Reb A (GLG Life Tech Corporation, Canada) (90 ppm) and GSG (Glucosyl Steviol Glucosides, GLG Life Tech Corporation, Canada) (200 ppm) were also prepared in water. The sucrose solution (4%) with the addition of various amount of Chaenomeles speciosa leave extract was evaluated. […] Each of verbascoside and isoverbascoside solutions of different concentrations was prepared in ethanol solution in water (50%). Verbascoside and isoverbascoside were evaluated at 1 and 200 ppm, respectively.

[3] = Enhancement of Luo Han Guo sweetness (flavor profile of Luo Han Guo solution with added substance); settings: Luo Han Guo solution (120 ppm), over the levels tested
Procedure: A Luo Han Guo (Biovittoria Ltd., New Zealand) solution was prepared in water (120 ppm). Ligustrosidic acid and 2′-hydroxy ligustrosidic acid solutions were prepared as above (EXAMPLE II). The flavor profile of the Luo Han Guo solution with added ligustrosidic acid and 2′-hydroxy ligustrosidic acid is reported in the following: The effect of botanical extract such as Chaenomeles speciosa leave extract on sweetness was examined. Solutions of Chaenomeles speciosa leave extract containing ligustrosidic acid (0.61%), 2′-hydroxy ligustrosidic acid (0.62%), verbascoside (0.69%) and isoverbascoside (0.21%) were prepared in ethanol solution in water (50%) to obtain a series of concentrations ranging from 1 to 1000 ppm. Solutions of sucrose (4%) and Luo Han Guo (120 ppm) were prepared as above (EXAMPLE II and III). In addition, solutions of fructose (3.4%), Reb A (GLG Life Tech Corporation, Canada) (90 ppm) and GSG (Glucosyl Steviol Glucosides, GLG Life Tech Corporation, Canada) (200 ppm) were also prepared in water. The Luo Han Guo solution (120 ppm) with the addition of various amount of Chaenomeles speciosa leave extract was evaluated. The flavor profile is as follows: A Luo Han Guo (Biovittoria Ltd., New Zealand) solution was prepared in water (120 ppm). Verbascoside and isoverbascoside solutions were prepared as above (EXAMPLE XIII). The flavor profile of the Luo Han Guo solution with added verbascoside and isoverbascoside is reported in the following: […]

| Compound | taste and smell of the compound itself ([1]; evaluated at 200 ppm) | overall effect when used with sucrose (summary in text) [2] | overall effect when used with Luo Han Guo (summary in text) [3] | taste and smell of the compound itself ([1]; evaluated at 1 ppm) | effect observed in sucrose solution [2] | further results |
| --- | --- | --- | --- | --- | --- | --- |
| 2′-hydroxy ligustrosidic acid | devoid of taste and smell | strong effect in sweetness enhancement | strong effect in sweetness enhancement | – | – | – |
| COC(=O)C1=COC(OC2OC(CO)C(O)C(O)C2O)C(=CC(=O)O)C1CC(=O)OCCc1ccc(O)cc1 (stereo in doubt) [Ligustrosidic Acid, [3-(carboxymethylene)-2-(β-D-glucopyranosyloxy)-3,4-dihydro-5-(methoxycarbonyl)]-2H-pyran-4-acetic acid-α-[2-(4-hydroxyphenyl)ethyl] ester] | – | – | – | devoid of taste and smell | – | overall effect when used with sucrose (summary in text) ([2]; listed as Ligustrosidic acid): particularly strong effect; overall effect when used with sucrose (summary in text) ([2]; listed as ligustrosidic acid): enhanced overall sweetness, body and mouthfeel; overall effect when used with Luo Han Guo (summary in text) ([3]; listed as Ligustrosidic acid): particularly strong effect; overall effect when used with Luo Han Guo (summary in text) ([3]; listed as ligustrosidic acid): enhanced overall sweetness, body and mouthfeel |
| C[C@@H]1O[C@@H](O[C@@H]2[C@@H](O)[C@H](OCCc3ccc(O)c(O)c3)O[C@H](COC(=O)/C=C/c3ccc(O)c(O)c3)[C@H]2O)[C@H](O)[C@H](O)[C@H]1O [Isoverbascoside, isoverbascoside] | devoid of taste and smell | enhanced overall mouthfeel | enhanced overall mouthfeel and suppressed Luo Han Guo's lingering off-taste | – | – | – |
| C[C@@H]1O[C@@H](O[C@@H]2[C@@H](O)[C@H](OCCc3ccc(O)c(O)c3)O[C@H](CO)[C@H]2OC(=O)/C=C/c2ccc(O)c(O)c2)[C@H](O)[C@H](O)[C@H]1O [Verbascoside, (E)-2-(3,4-dihydroxyphenyl)ethyl 3-O-(6-deoxy-α-L-mannopyranosyl)-4-[3-(3,4-dihydroxyphenyl)-2-propenoate]-β-D-Glucopyranoside] | – | particular effect in sweetness enhancement | particular effect in sweetness enhancement | devoid of taste and smell | – | – |
| C/C=C1/[C@H](O[C@@H]2O[C@H](CO)[C@@H](O)[C@H](O)[C@H]2O)OC=C(C(=O)OC)[C@H]1CC(=O)OCCc1ccc(O)cc1 [ligustroside] | – | – | – | – | Some mouthfeel, slight drying or slightly fruity effect | – |
| C/C=C1\C(OC2OC(CO)C(O)C(O)C2O)OC=C(C(=O)OCCc2ccc(O)c(O)c2)C1CC(=O)OCCc1ccc(O)c(O)c1 (stereo not shown) [multifloroside] | – | – | – | – | Some mouthfeel, slight drying or slightly fruity effect | – |
